PubChem BioAssay (NCI)
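Method: 48-hour compound exposure of cells in 96-well plates, five concentrations, linear interpolation of endpoints. GI50 is the concentration that inhibits growth by half. Definition used: TGI = concentration required for complete inhibition of growth.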 Where a SMILES comes first, the peptide text is derived from it. The star is where a group is joined. Cbz = O=C(OCc1ccccc1)*

What was measured:
Experiment in all cases: inhibition of tumour cell growth, NCI panel, 48 h
[1] = test system: 786-0 renal
[2] = test system: A498 renal
[3] = test system: ACHN renal
[4] = test system: EKVX NSCLC
[5] = test system: HOP-92 NSCLC
[6] = test system: KM12 colon
[7] = test system: OVCAR-3 ovarian
[8] = test system: TK-10 renal
[9] = test system: MDA-MB-435
[10] = test system: HL-60(TB) leukemia

SMILES | TGI [1] [µM] | TGI [2] [µM] | TGI [3] [µM] | TGI [4] [µM] | TGI [5] [µM] | TGI [6] [µM] | TGI [7] [µM] | TGI [8] [µM] | TGI [9] [µM] | TGI [10] [µM] | GI50 [2] [µM] | GI50 [3] [µM] | GI50 [10] [µM] | GI50 [5] [µM] | GI50 [7] [µM] | GI50 [8] [µM]
C=C1CC[C@H]2C(=O)OC(c3ccoc3)C[C@]2(C)C/C=C\C=C/1C(=O)OC (stereo not given in full) | > 25 | > 25 | > 25 | > 25 | > 25 | > 25 | > 25 | > 25 | – | – | – | – | – | – | – | –
Cn1nnnc1SC(F)(F)c1nc2ccccc2o1 | > 100 | > 100 | > 100 | – | > 100 | > 100 | > 100 | > 100 | > 100 | – | – | – | – | – | – | –
CC(=O)O[C@]12CCCCCC1C1(O)C(O)CCCCC12 (stereo not given in full) | > 100 | – | > 100 | > 100 | – | > 100 | – | > 100 | – | > 100 | – | – | – | – | – | –
O=C1CC(=O)NC(=NN2C(=O)/C(=C/c3ccc(Cl)c(Cl)c3)N=C2c2ccccc2)N1 | > 100 | 62.9 | > 100 | – | 89.8 | 40.1 | 49.4 | > 100 | > 100 | – | – | – | – | – | – | –
COC(=O)N[C@H](C(=O)NC(OCc1ccccc1)C1COC(C)(C)O1)C(C)O[Si](C)(C)C(C)(C)C (stereo not given in full) | > 100 | > 100 | > 100 | > 100 | > 100 | – | – | > 100 | – | > 100 | – | – | – | – | – | –
c1ccc2c(c1)OCCOCCOc1ccccc1OCCO2 | > 100 | > 100 | > 100 | > 100 | > 100 | > 100 | 70 | > 100 | – | 69.1 | – | – | – | – | – | –
NC1(CCNC(=O)c2ccccc2)CCN(C(=O)c2ccccc2)CC1 | > 100 | – | > 100 | > 100 | > 100 | > 100 | – | > 100 | > 100 | – | – | – | – | – | – | –
Cc1n[n+](Cc2ccccc2)c2sc(N)nn12 | > 100 | > 100 | > 100 | > 100 | – | > 100 | > 100 | > 100 | > 100 | – | – | – | – | – | – | –
CCCC(=O)[O-].CCCC(=O)[O-].NCCN.NCCN.[Co+3].[O-][Cl+3]([O-])([O-])[O-] | > 100 | > 100 | > 100 | > 100 | > 100 | > 100 | > 100 | > 100 | – | – | – | – | – | – | – | –
O=c1cc(NNc2cccc(Cl)c2)[nH]c(=O)[nH]1 | 31 | > 100 | > 100 | – | 35.5 | > 100 | 31.2 | 36.2 | – | 43.9 | – | – | – | – | – | –
CCOC(=O)CCC(NC(=O)OCc1ccccc1)C(=O)NC(CCC(=O)OCC)C(=O)OCC (stereo not given) (Cbz-Glu(OEt)-Glu(OEt)-OEt; configuration not given here) | > 100 | > 100 | > 100 | > 100 | > 100 | > 100 | > 100 | – | > 100 | – | – | – | – | – | – | –
COc1cccc(-c2nc(-c3cnccn3)n(C/C=C/c3ccccc3)n2)c1 | > 10 | – | > 10 | > 10 | > 10 | > 10 | > 10 | > 10 | > 10 | – | – | – | – | – | – | –
N/C(=N\S(=O)(=O)c1ccc(-c2ncccc2C(F)(F)F)s1)Nc1ccc(Cl)cc1 | 34.7 | 30.7 | 30 | 19 | 30 | 81.2 | 38.7 | 26.2 | – | 46.4 | – | – | – | – | – | –
CCC(=O)OCN(C)c1nc(N(C)COC(=O)CC)nc(N(C)COC(=O)CC)n1 | – | > 100 | – | – | > 100 | > 100 | > 100 | > 100 | > 100 | – | – | – | – | – | – | –
C[n+]1c2ccccc2c(NC(CCCN=C(N)N)C(=O)O)c2ccccc21 (stereo not given) | > 100 | > 100 | > 100 | > 100 | > 100 | > 100 | > 100 | > 100 | – | > 100 | – | – | – | – | – | –
O=C(NCCN1CCOCC1)c1ccc(I)cc1 | > 100 | > 100 | > 100 | > 100 | – | – | > 100 | > 100 | – | > 100 | – | – | – | – | – | –
COc1ccc(C2(CC(C)C)CCN(S(=O)(=O)c3ccc(C)cc3)C2)cc1OC (stereo not given) | > 100 | – | > 100 | > 100 | – | 68 | 55.8 | > 100 | > 100 | – | – | – | – | – | – | –
COc1ccc(C2COc3c(ccc(O)c3C)C2)cc1OC (stereo not given) | – | > 31.7 | – | > 200 | > 186 | > 200 | > 195 | – | – | 140 | – | – | – | – | – | –
Cc1cc(C)nc(NC(P(=O)(O)O)P(=O)(O)O)n1 | > 100 | – | > 100 | > 100 | – | > 100 | > 100 | > 100 | – | – | – | – | – | – | – | –
COc1ccc2c(c1)c(-c1nc(-c3c[nH]c4ncccc34)cs1)cn2CCCCN1CCCCC1 | – | 2.9 | 3.04 | – | 2.48 | – | 3.24 | 2.93 | – | 3.54 | 1.43 | 1.66 | 1.72 | 1.18 | 1.76 | 1.51
